Test results taken from US11046945B2, “Labeled glutaminase proteins, isolated glutaminase protein mutants, methods of use, and kit” (CORNELL UNIVERSITY, priority 2013, dated 2021).

Molecular target: T1, GAC (Mus musculus, UniProt D3Z7P3)
T1 construct: plasmid (residues 72-603 for GAC, 72-674 for KGA); His-tag with thrombin cleavage site (N, cleaved yes); made in house; host or cells: pET23a vector
T1 sequence (D3Z7P3 72-603 isoform D3Z7P3-2): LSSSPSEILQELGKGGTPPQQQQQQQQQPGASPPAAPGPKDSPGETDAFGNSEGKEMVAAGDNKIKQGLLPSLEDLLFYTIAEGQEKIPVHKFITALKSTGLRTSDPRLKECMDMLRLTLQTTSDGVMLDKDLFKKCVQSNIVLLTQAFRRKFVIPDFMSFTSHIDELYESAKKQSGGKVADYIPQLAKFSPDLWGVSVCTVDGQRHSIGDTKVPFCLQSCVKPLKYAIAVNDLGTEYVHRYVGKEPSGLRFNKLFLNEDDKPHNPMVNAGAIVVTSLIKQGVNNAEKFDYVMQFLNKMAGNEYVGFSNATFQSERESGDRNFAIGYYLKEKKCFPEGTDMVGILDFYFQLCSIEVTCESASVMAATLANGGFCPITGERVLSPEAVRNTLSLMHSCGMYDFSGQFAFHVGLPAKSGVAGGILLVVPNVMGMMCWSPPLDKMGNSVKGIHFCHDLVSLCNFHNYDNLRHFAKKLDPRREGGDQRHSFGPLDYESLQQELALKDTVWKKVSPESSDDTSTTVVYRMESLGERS
Assay: FRET assay of GAC tetramer formation (488-GAC donor, QSY 9-GAC acceptor)
Type: binding
Conditions: for effect on 488-GAC fluorescence emission in equilibrated 488-GAC/QSY 9-GAC mixture: 20 nM 488-GAC and 200 nM QSY 9-GAC
Description: A mouse kidney type glutaminase isoform 1 (KGA, NP_001074550.1, which is hereby incorporated by reference in its entirety (SEQ ID NO:7)) and isoform 2 (GAC, NP_001106854.1, which is hereby incorporated by reference in its entirety (SEQ ID NO:3)) plasmid (residues 72-603 for GAC, 72-674 for KGA) was cloned into a pET23a vector containing an N-terminal histidine (His)-tag and thrombin cleavage site. The expressed protein was initially purified using Co^2+ affinity beads (Clontech), after which the His-tag was cleaved with human thrombin (Haemetologic Technologies) overnight at 4° C. and subsequently purified by anion exchange (GE healthcare) and gel filtration chromatography. Purified GAC or KGA was stored in a high salt containing buffer (20 mM Tris-HCl pH 8.5, 500 mM NaCl, 1 mM NaN3) and stored at −80° C. following snap freezing in liquid N2 for long term use. For labeling recombinant GAC or KGA with small molecule probes, 1.5 mg of enzyme was exchanged to 50 mM HEPES pH 7.2, 100 mM NaCl using a PD10 desalting column (GE healthcare) and incubated with 50 μM (5-fold excess of enzyme) of either ALEXA FLUOR® 488 succinimidyl ester or QSY® 9 succinimidyl ester (Molecular Probes) for 1 hr at 4° C. After 1 hr, the labeling reaction was quenched with 150 mM Tris-HCl pH 8.5 and unreacted probe was separated from labeled-enzyme using a PD10 desalting column eluting labeled-GAC back into the high salt containing buffer.
Fluorescence experiments were performed using a Varian Carry Eclipse Fluorometer in the counting mode. Excitation and emission wavelengths were 490 and 520 nm, respectively. Experiments were all prepared as one-mL samples and stirred continuously at 20° C. in 50 mM Tris-Acetate pH 8.5, 0.1 mM ethylenediaminetetraacetic acid (EDTA). For WT GAC titrations in the absence of inorganic phosphate, 10 nM 488-GAC was equilibrated followed by injection of 25 μL of the appropriate concentration of QSY® 9-GAC and was allowed to equilibrate for 10 minutes at which point 75 μL of the appropriate concentration of unlabeled WT GAC was added to give a concentration that was ten-times that of labeled-GAC (i.e., 10-fold excess). For FRET experiments prepared for inorganic phosphate titrations, a similar protocol was followed whereby 10 nM of 488-GAC was equilibrated with 400 nM QSY® 9-GAC followed by injection of 100 μL of the appropriate concentration of K2HPO4 prepared in 50 mM Tris-Acetate (pH=8.5) 0.1 mM EDTA buffer. To test whether purified mutants can form oligomers with WT GAC, 200 nM QSY® 9-D391K-GAC or 200 nM QSY® 9-K316E-D391K-R459E was added to an equilibrated sample of 20 nM 488-WT GAC. Likewise, when assaying the effects of BPTES and 968 on oligomer formation, BPTES or 968 (10 μM or 25 μM, respectively) was added following equilibration of a sample of 200 nM of QSY® 9-WT GAC and 20 nM 488-WT GAC. Both BPTES and 968 were prepared in DMSO, and appropriate dilutions were made so that less than 2% (v/v) DMSO was added to an experimental sample.

| effect on 488-GAC fluorescence emission in equilibrated 488-GAC/QSY 9-GAC mixture (10 μM BPTES) | reversal of induced tetramers/quenching by excess unlabeled GAC (10 μM BPTES, 10-fold excess unlabeled GAC) | SMILES | effect on 488-GAC fluorescence emission in equilibrated 488-GAC/QSY 9-GAC mixture (25 μM 968) |
| --- | --- | --- | --- |
| immediate quenching | stable and not disrupted | O=C(Cc1ccccc1)Nc1nnc(CCSCCc2nnc(NC(=O)Cc3ccccc3)s2)s1 [BPTES] | – |
| – | – | CN(C)c1ccc(C2Nc3ccc4ccccc4c3C3=C2C(=O)CC(C)(C)C3)cc1Br (stereo not drawn) [compound 968] | significant change in the fluorescence emission |
